Patent US8785436B2, “1,3-oxazines as BACE 1 and/or BACE2 inhibitors” (Hoffmann-La Roche Inc., priority 2011, dated 2014)
Counter-ions that a name gives are not always drawn.

What was measured:
Type in all cases: cell-based
[1] = molecular target: T1, BACE1 (Homo sapiens, UniProt P56817); assay: Cellular Aβ-lowering assay b) (Abeta 40 AlphaLISA, HEK293 APP cells); conditions: 18-20 hrs incubation, read-out: BACE1 cell act. Aβ40 IC50
T1 construct: Human HEK293 cells which are stably transfected with a vector expressing a cDNA of the human APP wt gene (APP695); endogenous in cells; host or cells: HEK293 cells stably expressing human APP695 wt
T1 sequence (P56817 46-501): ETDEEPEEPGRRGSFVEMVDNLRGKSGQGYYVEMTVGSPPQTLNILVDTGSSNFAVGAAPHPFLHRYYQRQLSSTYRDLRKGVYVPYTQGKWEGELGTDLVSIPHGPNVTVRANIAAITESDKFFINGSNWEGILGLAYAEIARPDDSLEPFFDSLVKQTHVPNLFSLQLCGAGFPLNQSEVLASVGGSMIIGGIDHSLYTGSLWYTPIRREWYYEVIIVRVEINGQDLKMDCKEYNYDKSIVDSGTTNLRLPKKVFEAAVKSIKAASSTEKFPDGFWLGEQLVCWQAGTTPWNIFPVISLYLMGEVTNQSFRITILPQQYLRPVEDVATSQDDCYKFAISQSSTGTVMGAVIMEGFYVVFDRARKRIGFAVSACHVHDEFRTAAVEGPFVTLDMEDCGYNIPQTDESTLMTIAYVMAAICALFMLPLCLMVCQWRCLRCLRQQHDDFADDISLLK
Procedure: (§1) Cellular Aβ-Lowering Assay:
b) Alternatively, the Abeta 40 AlphaLISA Assay can be used. The HEK293 APP cells were seeded in 96 well Microtiter plates in cell culture medium (Iscove's, plus 10% (v/v) fetal bovine serum, penicillin/streptomycin) to about 80% confluency and the compounds were added at a 3× concentration in 1/3 volume of culture medium (final DMSO concentration was kept at 1% v/v). After 18-20 hrs incubation at 37° C. and 5% CO2 in a humidified incubator, the culture supernatants were harvested for the determination of Aβ 40 concentrations using Perkin-Elmer Human Amyloid beta 1-40 (high specificity) Kit (Cat# AL275C).
In a Perkin-Elmer White Optiplate-384 (Cat#6007290), 2 ul culture supernatants were combined with 2 μl of a 10× AlphaLISA Anti-hAβ Acceptor beads+Biotinylated Antibody Anti-Aβ 1-40 Mix (50 μg/mL/5 nM). After 1 hour room temperature incubation, 16 μl of a 1.25× preparation of Streptavidin (SA) Donor beads (25 μg/mL) were added and incubated for 30 minutes in the Dark. Light Emission at 615 nm was then recorded using EnVision-Alpha Reader. Levels of Aβ 40 in the culture supernatants were calculated as percentage of maximum signal (cells treated with 1% DMSO without inhibitor). The IC50 values were calculated using the Excel XLfit software.

[2] = molecular target: T1, BACE1; assay: Cellular Aβ-lowering assay a) (Aβ40 ELISA, HEK293 APP cells); conditions: cellular assay a): HEK293 APP695 cells, 18-20 hrs incubation, read-out: BACE1 cell act. Aβ40 IC50
Procedure: as §1
a) Human HEK293 cells which are stably transfected with a vector expressing a cDNA of the human APP wt gene (APP695) were used to assess the potency of the compounds in a cellular assay. The cells were seeded in 96-well microtiter plates in cell culture medium (Iscove, plus 10% (v/v) fetal bovine serum, glutamine, penicillin/streptomycin) to about 80% confluence and the compounds were added at a 10× concentration in 1/10 volume of medium without FCS containing 8% DMSO (final concentration of DMSO was kept at 0.8% v/v). After 18-20 hrs incubation at 37° C. and 5% CO2 in a humidified incubator the culture supernatant was harvested for the determination of Aβ40 concentrations. 96 well ELISA plates (e.g., Nunc MaxiSorb) were coated with monoclonal antibody which specifically recognize the C-terminal end of Aβ40 (Brockhaus et al., NeuroReport 9, 1481-1486; 1998). After blocking of non-specific binding sites with e.g. 1% BSA and washing, the culture supernatants were added in suitable dilutions together with a horseradish peroxidase-coupled Aβ detection antibody (e.g., antibody 4G8, Senetek, Maryland Heights, Mo.) and incubated for 5 to 7 hrs. Subsequently the wells of the microtiter plate were washed extensively with Tris-buffered saline containing 0.05% Tween 20 and the assay was developed with tetramethylbenzidine/H2O2 in citric acid buffer. After stopping the reaction with one volume 1 NH2SO4 the reaction was measured in an ELISA reader at 450 nm wavelength. The concentrations of Aβ in the culture supernatants were calculated from a standard curve obtained with known amounts of pure Aβ peptide.

[3] = molecular target: T2, BACE2 (Rattus norvegicus, UniProt Q6IE75); assay: BACE inhibition by measuring cellular TMEM27 cleavage (INS-TMEM27 cells, ELISA); conditions: INS-TMEM27 (Ins1e rat) cells, shed human TMEM27 by ELISA; read-out: BACE2 cell act. IC50
T2 construct: endogenous cellular BACE2 in the Ins1e rat cell line; endogenous in cells; host or cells: INS-TMEM27 (INS1e-derived rat cell line with TetOn-inducible full-length hTMEM27)
T2 sequence (Q6IE75 63-514): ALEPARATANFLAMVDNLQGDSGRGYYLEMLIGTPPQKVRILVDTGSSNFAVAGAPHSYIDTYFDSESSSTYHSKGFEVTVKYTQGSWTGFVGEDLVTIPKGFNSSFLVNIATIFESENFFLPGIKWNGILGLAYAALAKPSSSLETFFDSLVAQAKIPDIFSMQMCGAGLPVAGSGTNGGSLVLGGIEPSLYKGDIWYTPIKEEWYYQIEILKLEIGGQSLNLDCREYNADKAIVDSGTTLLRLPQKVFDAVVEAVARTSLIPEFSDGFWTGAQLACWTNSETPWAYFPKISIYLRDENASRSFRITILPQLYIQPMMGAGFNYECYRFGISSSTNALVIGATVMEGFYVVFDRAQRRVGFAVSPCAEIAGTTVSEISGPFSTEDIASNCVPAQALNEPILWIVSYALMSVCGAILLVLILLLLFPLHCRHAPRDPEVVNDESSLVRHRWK
From the text: Assay for BACE Inhibition by Measuring Cellular TMEM27 Cleavage:
The assay uses the principle of inhibition of human TMEM27 cleavage by endogenous cellular BACE2 in the Ins1e rat cell line and shedding from the cell surface into the culture medium, followed by detection in an ELISA assay Inhibition of BACE2 prevents the cleavage and shedding in a dose-dependent manner.
The stable cell line “INS-TMEM27” represents an INS1e-derived cell line with inducible expression (using the TetOn system) of full-length hTMEM27 in a doxycycline-dependent manner. The cells are cultured throughout the experiment in RPMI1640+Glutamax (Invitrogen) Penicillin/Streptomycin, 10% Fetal bovine serum, […], […], 100 micrograms/ml G418 and 100 microgram/ml hygromycin and are grown inadherent culture at 37° C. in a standard CO2 cell culture incubator.
INS-TMEM27 cells are seeded in 96-well plates. After 2 days in culture, BACE2 inhibitor is added in a range of concentrations as required by the assay and after a further two hours, doxycycline is added to a final concentration of 500 ng/ml. The cells are incubated for a further 46 hours and the supernatant harvested for detection of shed TMEM27.
An ELISA assay (using a pair of mouse anti-human-TMEM27 antibodies, raised against the extracellular domain of TMEM27) is used for detection of TMEM27 in the culture medium. An EC50 for BACE2 inhibition is calculated using the ELISA readout for each inhibitor concentration with standard curve-fitting software such as XLFit for the Excel spreadsheet program.

SMILES | IC50 [1] [µM] | IC50 [2] [µM] | IC50 [3] [µM]
CC1(C)OC(N)=N[C@](C)(c2cc(NC3CCC(c4ccccc4)C3)ccc2F)C1(F)F (mixture of isomers) [Example 49, (R)-5,5-Difluoro-4-[2-fluoro-5-((1RS,3RS)-3-phenyl-cyclopentylamino)-phenyl]-4,6,6-trimethyl-5,6-dihydro-4H-[1,3]oxazin-2-ylamine] | 1.21 |  | 
C[C@]1(c2cccc(OCC3CC3(F)F)c2)N=C(N)OCC1(F)F (mixture of isomers) [Example 57, (R)-4-[5-((RS)-2,2-Difluoro-cyclopropylmethoxy)-phenyl]-5,5-difluoro-4-methyl-5,6-dihydro-4H-[1,3]oxazin-2-ylamine] | 3.7 |  | 
C[C@]1(C2CC2C(=O)Nc2cccc3cc(Cl)cnc23)N=C(N)OCC1(F)F (stereo in doubt) [Example 62, (1S,2S)-rel-2-((R)-2-Amino-5,5-difluoro-4-methyl-5,6-dihydro-4H-[1,3]oxazin-4-yl)-cyclopropanecarboxylic acid(3-chloro-quinolin-8-yl)-amide] | 0.42 |  | 
C[C@]1(c2cc(-c3nc4ccc(Cl)cc4o3)c(F)cc2F)N=C(N)OCC1(F)F [Example 15, (R)-4-[5-(6-Chloro-benzooxazol-2-yl)-2,4-difluoro-phenyl]-5,5-difluoro-4-methyl-5,6-dihydro-4H-[1,3]oxazin-2-ylamine Hydrochloride] | 1.28 |  | 
C[C@]1(c2cc(NCc3nn(C(F)F)cc3Cl)ccc2F)N=C(N)OCC1(F)F [Example 16, (R)-4-{5-[(4-Chloro-1-difluoromethyl-1H-pyrazol-3-ylmethyl)-amino]-2-fluoro-phenyl}-5,5-difluoro-4-methyl-5,6-dihydro-4H-[1,3]oxazin-2-ylamine] |  | 0.113 | 2.52
C[C@]1(c2cc(NCC3CC3)ccc2F)N=C(N)OCC1(F)F [Example 25, (R)-4-[5-(Cyclopropylmethyl-amino)-2-fluoro-phenyl]-5,5-difluoro-4-methyl-5,6-dihydro-4H-[1,3]oxazin-2-ylamine] |  | 0.31 | 1.65
C[C@]1(c2cc(-c3cncc(Cl)c3)c(F)cc2F)N=C(N)OCC1(F)F [Example 32, (R)-4-[5-(5-Chloro-pyridin-3-yl)-2,4-difluoro-phenyl]-5,5-difluoro-4-methyl-5,6-dihydro-4H-[1,3]oxazin-2-ylamine] | 0.88 |  | 
C[C@]1(c2cc(-c3cncnc3)c(F)cc2F)N=C(N)OCC1(F)F [Example 33, (R)-4-(2,4-Difluoro-5-pyrimidin-5-yl-phenyl)-5,5-difluoro-4-methyl-5,6-dihydro-4H-[1,3]oxazin-2-ylamine] | 0.38 |  | 
Cc1ccc(Cc2cc3cc(F)c([C@@]4(C)N=C(N)OCC4(F)F)cc3[nH]2)cc1 [Example 40, (R)-5,5-Difluoro-4-[5-fluoro-2-(4-methyl-benzyl)-3H-indol-6-yl]-4-methyl-5,6-dihydro-4H-[1,3]oxazin-2-ylamine] |  | 6.02 | 10.9
CC1(C)OC(N)=N[C@](C)(c2cc(Nc3ccccc3C#N)ccc2F)C1(F)F [Example 43, 2-[3-((R)-2-Amino-5,5-difluoro-4,6,6-trimethyl-5,6-dihydro-4H-[1,3]oxazin-4-yl)-4-fluoro-phenylamino]-benzonitrile] |  | 1.65 | 4.14
COc1ccccc1Nc1ccc(F)c([C@@]2(C)N=C(N)OC(C)(C)C2(F)F)c1 [Example 44, (R)-5,5-Difluoro-4-[2-fluoro-5-(2-methoxy-phenylamino)-phenyl]-4,6,6-trimethyl-5,6-dihydro-4H-[1,3]oxazin-2-ylamine] |  | 2.09 | 2.98
CC1(C)OC(N)=N[C@](C)(c2cc(NC3CCCC3)ccc2F)C1(F)F [Example 48, (R)-4-(5-Cyclopentylamino-2-fluoro-phenyl)-5,5-difluoro-4,6,6-trimethyl-5,6-dihydro-4H-[1,3]oxazin-2-ylamine] |  | 0.29 | 1.42
CC1(C)OC(N)=N[C@](C)(c2cc(-c3cc(Cl)cc(Cl)c3)ccc2F)C1(F)F [Example 51, (R)-4-(3′,5′-Dichloro-4-fluoro-biphenyl-3-yl)-5,5-difluoro-4,6,6-trimethyl-5,6-dihydro-4H-[1,3]oxazin-2-ylamine] |  | 14.5 | 3.35
CC1(C)OC(N)=N[C@](C)(c2cc(-c3cc(C#N)ccc3Cl)ccc2F)C1(F)F [Example 52, 3′-((R)-2-Amino-5,5-difluoro-4,6,6-trimethyl-5,6-dihydro-4H-[1,3]oxazin-4-yl)-6-chloro-4′-fluoro-biphenyl-3-carbonitrile] | 2.88 |  | 
NC1=NC(c2cc(-c3cncc(Cl)c3)ccc2F)(C(F)F)CCO1 (centres unmarked) [Example 53, 4-[5-(5-Chloro-pyridin-3-yl)-2-fluoro-phenyl]-4-difluoromethyl-5,6-dihydro-4H-[1,3]oxazin-2-ylamine] | 0.502 |  | 
NC1=N[C@@](c2cc(-c3cncc(Cl)c3)ccc2F)(C(F)F)CCO1 [Example 54B, (S)-4-[5-(5-Chloro-pyridin-3-yl)-2-fluoro-phenyl]-4-difluoromethyl-5,6-dihydro-4H-[1,3]oxazin-2-ylamine] | 0.22 |  | 
CCc1ccc(Cc2nc3ccc([C@@]4(C)N=C(N)OCC4(F)F)cc3[nH]2)cc1 [Example 55, (R)-4-[2-(4-Ethyl-benzyl)-3H-benzoimidazol-5-yl]-5,5-difluoro-4-methyl-5,6-dihydro-4H-[1,3]oxazin-2-ylamine] | 1.45 |  | 
C[C@]1(c2cc(NCc3cc(F)cc(F)c3)ccc2F)N=C(N)OC[C@@H]1F [Example 56, (4R,5R)-4-[5-(3,5-Difluoro-benzylamino)-2-fluoro-phenyl]-5-fluoro-4-methyl-5,6-dihydro-4H-[1,3]oxazin-2-ylamine] | 0.8 |  | 
C[C@]1(c2cccc(OCCC(F)(F)F)c2)N=C(N)OCC1(F)F [Example 58, (R)-5,5-Difluoro-4-methyl-4-[3-(3,3,3-trifluoro-propoxy)-phenyl]-5,6-dihydro-4H-[1,3]oxazin-2-ylamine] | 2.01 |  | 
